Laboratory results: patent US20250179047A1, “5-[7-(3,4-DIHYDRO-1H-ISOQUINOLINE-2-CARBONYL)-1,2,3,4 TETRAHYDROISOQUINOLIN-6-YL]-1H-PYRROLE-3-CARBOXAMIDE DERIVATIVES, PHARMACEUTICAL COMPOSITIONS CONTAINING THEM AND THEIR USES AS PRO-APOPTOTIC AGENTS” (LES LABORATOIRES SERVIER, priority 2022, published 2025)

Experiments:
[1] = target: BCL2 G101V (Homo sapiens, UniProt P10415, G101V); test: TR-FRET competitive binding assay, BCL2 G101V; settings: BCL2 G101V; Ki determined from IC50; read-out: TR_FRET EKI_Bcl2 G101V
How it was run: (§1)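 Terbium-labelled N-terminal Halo-fusion BCL2 or BCLXL (E. coli), 0.5 nM, competed against fluorescein-labelled PUMA peptide (2 or 20 nM) for 2 h at 23° C in 50 mM Hepes pH 7.5, 150 mM NaCl, 5% DMSO. TR-FRET 520/495 nm ratio gave IC50 by four-parameter fit; Ki derived from IC50.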

[2] = system: BCL2 G101V; test: TR-FRET competitive binding assay, BCL2 G101V; set-up: species or system human; settings: ratio Ki BCL2 G101V / Ki BCL2 WT
How it was run: as §1

[3] = system: KMS-12-PE Bcl-2 WT; test: In vitro cytotoxicity CellTiter-Glo 48 h, KMS-12-PE Bcl-2 WT; type: cell-based; settings: Homo sapiens, KMS-12-PE, C50 = concentration needed to reach 50% of the cellular viability
How it was run: (§2)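 Bcl-2 WT- and G101V-expressing KMS-12-PE cells; 48 h treatment at 37 °C, 5% CO2; CellTiter-Glo ATP luminescence; C50 from 11-point curves.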

[4] = target: BCL2 WT (Homo sapiens (Human), UniProt P10415); test: TR-FRET competitive binding assay, BCL2 WT; settings: Ki determined from IC50, read-out: TR_FRET EKI_Bcl2 WT
How it was run: as §1

[5] = target: BCLXL WT (Homo sapiens (Human), UniProt Q07817); test: TR-FRET competitive binding assay, BCLXL WT; settings: for Ki: BCLXL WT, Ki determined from IC50, read-out: TR_FRET EKI BclxL; for TR_FRET EKI BCLxL/WT selectivty ratio: ratio Ki BCLxL / Ki BCL2 WT
BCLXL WT, sequence (Q07817 other isoform, or with tags, fused parts or gaps): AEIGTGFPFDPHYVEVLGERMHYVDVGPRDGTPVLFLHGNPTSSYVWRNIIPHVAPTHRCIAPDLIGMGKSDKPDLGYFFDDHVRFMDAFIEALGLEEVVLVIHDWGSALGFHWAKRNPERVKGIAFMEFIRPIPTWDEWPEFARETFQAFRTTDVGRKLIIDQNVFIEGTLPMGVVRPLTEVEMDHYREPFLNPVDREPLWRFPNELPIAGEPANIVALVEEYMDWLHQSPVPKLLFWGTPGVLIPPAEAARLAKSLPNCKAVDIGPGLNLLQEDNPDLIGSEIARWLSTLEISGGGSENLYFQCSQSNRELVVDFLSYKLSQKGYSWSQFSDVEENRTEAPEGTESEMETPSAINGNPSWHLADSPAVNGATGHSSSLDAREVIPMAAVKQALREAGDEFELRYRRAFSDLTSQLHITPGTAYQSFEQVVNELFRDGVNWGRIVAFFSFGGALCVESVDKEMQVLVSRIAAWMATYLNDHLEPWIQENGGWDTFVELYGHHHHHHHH
How it was run: as §1

[6] = target: BCL2 D103Y (Homo sapiens, UniProt P10415, D103Y); test: TR-FRET competitive binding assay, BCL2 D103Y; settings: Ki determined from IC50, read-out: TR_FRET EKI_Bcl2 D103Y
How it was run: as §1

[7] = system: KMS-12-PE Bcl-2 G101V; test: In vitro cytotoxicity CellTiter-Glo 48 h, KMS-12-PE Bcl-2 G101V; type: cell-based; settings: for Ratio (G101V/WT): C50 KMS-12-PE Bcl-2 G101V over C50 KMS-12-PE Bcl-2 WT; for IC50: Homo sapiens, KMS-12-PE, 48 h, CellTiter-Glo, C50 = concentration needed to reach 50% of the cellular viability
How it was run: as §2

| Compound | Ki [1] | TR_FRET EKI G101V/WT selectivty ratio [2] | IC50 [3] | Ki [4] | Ki [5] | TR_FRET EKI BCLxL/WT selectivty ratio [5] | Ki [6] | Ratio (G101V/WT) [7] | IC50 [7] |
| --- | --- | --- | --- | --- | --- | --- | --- | --- | --- |
| Cc1c(N(C(=O)c2cc(-c3cc4c(cc3C(=O)N3Cc5ccccc5C[C@H]3C)CN(Cc3cc5ccccc5cn3)CC4)n(C)c2C)c2ccc(O)cc2)cc(C#N)n1C [Example 58, N-(5-cyano-1,2-dimethylpyrrol-3-yl)-N-(4-hydroxyphenyl)-5-[2-(isoquinolin-3-ylmethyl)-7-{[(3R)-3-methyl-3,4-dihydro-1H-isoquinolin-2-yl]carbonyl}-3,4-dihydro-1H-isoquinolin-6-yl]-1,2-dimethylpyrrole-3-carboxamide] | 1.7 nM | 8.1 | 0.005 µM | 0.21 nM | 2.3 nM | 11.0 | 0.51 nM | 7.95 | 0.0396 µM |
| Cc1c(N(C(=O)c2cc(-c3cc4c(cc3C(=O)N3Cc5ccccc5C[C@H]3C)CN(C(=O)Cc3ccc(OCCC5CCOCC5)nc3)CC4)n(C)c2C)c2ccc(O)cc2)cc(C#N)n1C [Example 59, N-(5-cyano-1,2-dimethyl-1H-pyrrol-3-yl)-N-(4-hydroxyphenyl)-1,2-dimethyl-5-{7-[(3R)-3-methyl-1,2,3,4-tetrahydroisoquinoline-2-carbonyl]-2-(2-{6-[2-(oxan-4-yl)ethoxy]pyridin-3-yl}acetyl)-1,2,3,4-tetrahydroisoquinolin-6-yl}-1H-pyrrole-3-carboxamide] | 0.7 nM | 4.6 | 0.0064 µM | 0.16 nM | 3 nM | 19.1 | 0.4 nM | 5.15 | 0.0331 µM |
| Cc1c(C(=O)N(c2ccc(O)cc2)c2cc(C#N)n(C(C)C)c2C)cc(-c2cc3c(cc2C(=O)N2Cc4ccccc4C[C@H]2C)CN(C(=O)Cc2ccc(OCCN4CCOCC4)cc2)CC3)n1C [Example 64, N-(5-cyano-1-isopropyl-2-methyl-pyrrol-3-yl)-N-(4-hydroxyphenyl)-1,2-dimethyl-5-[7-[(3R)-3-methyl-3,4-dihydro-1H-isoquinoline-2-carbonyl]-2-[2-[4-(2-morpholinoethoxy)phenyl]acetyl]-3,4-dihydro-1H-isoquinolin-6-yl]pyrrole-3-carboxamide] | 0.5 nM | 4.5 | 0.0156 µM | 0.11 nM | 2.8 nM | 25.5 | 0.79 nM | 4.78 | 0.0745 µM |
| COCCn1c(C#N)cc(N(C(=O)c2cc(-c3cc4c(cc3C(=O)N3Cc5ccccc5C[C@H]3C)CN(C(=O)Cc3ccc(OCCN5CCOCC5)cc3)CC4)n(C)c2C)c2ccc(O)cc2)c1C [Example 68, N-[5-cyano-1-(2-methoxyethyl)-2-methyl-pyrrol-3-yl]-N-(4-hydroxyphenyl)-1,2-dimethyl-5-[7-[(3R)-3-methyl-3,4-dihydro-1H-isoquinoline-2-carbonyl]-2-[2-[4-(2-morpholinoethoxy)phenyl]acetyl]-3,4-dihydro-1H-isoquinolin-6-yl]pyrrole-3-carboxamide] | 0.4 nM | 5.7 | 0.0096 µM | 0.07 nM | 1.6 nM | 24.6 | 0.23 nM | 5.82 | 0.0556 µM |
| Cc1c(N(C(=O)c2cc(-c3cc4c(cc3C(=O)N3Cc5ccccc5C[C@H]3C)CN(C(=O)Cc3cc(F)c(OCCN5CCOCC5)cc3F)CC4)n(C)c2C)c2ccc(O)cc2)cc(C#N)n1C [Example 69, N-(5-cyano-1,2-dimethylpyrrol-3-yl)-5-[2-(2-{2,5-difluoro-4-[2-(morpholin-4-yl)ethoxy]phenyl}acetyl)-7-{[(3R)-3-methyl-3,4-dihydro-1H-isoquinolin-2-yl]carbonyl}-3,4-dihydro-1H-isoquinolin-6-yl]-N-(4-hydroxyphenyl)-1,2-dimethylpyrrole-3-carboxamide] | 2 nM | 7.9 | 0.0047 µM | 0.25 nM | 4.3 nM | 17.2 | 0.5 nM | 9.23 | 0.043 µM |
| Cc1c(N(C(=O)c2cc(-c3cc4c(cc3C(=O)N3Cc5ccccc5C[C@H]3C)CN(C(=O)Cc3ccc(OCCN5CCOC6(CCCC6)C5)cc3)CC4)n(C)c2C)c2ccc(O)cc2)cc(C#N)n1C [Example 73, N-(5-cyano-1,2-dimethyl-1H-pyrrol-3-yl)-N-(4-hydroxyphenyl)-1,2-dimethyl-5-{7-[(3R)-3-methyl-1,2,3,4-tetrahydroisoquinoline-2-carbonyl]-2-{2-[4-(2-{6-oxa-9-azaspiro[4.5]decan-9-yl}ethoxy)phenyl]acetyl}-1,2,3,4-tetrahydroisoquinolin-6-yl}-1H-pyrrole-3-carboxamide] | 2.7 nM | 5.4 | 0.0057 µM | 0.5 nM | 8.9 nM | 17.8 | 1.74 nM | 5.25 | 0.0298 µM |
| Cc1c(N(C(=O)c2cc(-c3cc4c(cc3C(=O)N3Cc5ccccc5C[C@H]3CN3CCCCC3)CN(C(=O)Cc3ccc(OCCN5CCC(F)CC5)cc3)CC4)n(C)c2C)c2ccc(O)cc2)cc(C#N)n1C [Example 76, N-(5-cyano-1,2-dimethylpyrrol-3-yl)-5-[2-(2-{4-[2-(4-fluoropiperidin-1-yl)ethoxy]phenyl}acetyl)-7-{[(3S)-3-(piperidin-1-ylmethyl)-3,4-dihydro-1H-isoquinolin-2-yl]carbonyl}-3,4-dihydro-1H-isoquinolin-6-yl]-N-(4-hydroxyphenyl)-1,2-dimethylpyrrole-3-carboxamide] | 0.3 nM | 5.5 | 0.0165 µM | 0.06 nM | 1.8 nM | 32.7 | 0.18 nM | 5.28 | 0.0871 µM |
| Cc1c(N(C(=O)c2cc(-c3cc4c(cc3C(=O)N3Cc5ccccc5C[C@H]3CN3CC[C@@H](F)C3)CN(C(=O)Cc3ccc(OCCC5CCOCC5)cc3)CC4)n(C)c2C)c2ccc(O)cc2)cc(C#N)n1C [Example 79, N-(5-cyano-1,2-dimethylpyrrol-3-yl)-5-(7-{[(3S)-3-{[(3R)-3-fluoropyrrolidin-1-yl]methyl}-3,4-dihydro-1H-isoquinolin-2-yl]carbonyl}-2-(2-{4-[2-(oxan-4-yl)ethoxy]phenyl}acetyl)-3,4-dihydro-1H-isoquinolin-6-yl)-N-(4-hydroxyphenyl)-1,2-dimethylpyrrole-3-carboxamide] | 1.5 nM | 5.8 | 0.0122 µM | 0.26 nM | 3.9 nM | 15.0 | 0.75 nM | 4.85 | 0.0592 µM |
| Cc1c(N(C(=O)c2cc(-c3cc4c(cc3C(=O)N3Cc5ccccc5C[C@H]3CN3CC[C@@H](F)C3)CN(C(=O)Cc3ccc(OCCN5CCOCC5)cc3F)CC4)n(C)c2C)c2ccc(O)cc2)cc(C#N)n1C [Example 80, N-(5-cyano-1,2-dimethylpyrrol-3-yl)-5-[2-(2-{2-fluoro-4-[2-(morpholin-4-yl)ethoxy]phenyl}acetyl)-7-{[(3S)-3-{[(3R)-3-fluoropyrrolidin-1-yl]methyl}-3,4-dihydro-1H-isoquinolin-2-yl]carbonyl}-3,4-dihydro-1H-isoquinolin-6-yl]-N-(4-hydroxyphenyl)-1,2-dimethylpyrrole-3-carboxamide] | 0.3 nM | 4.9 | 0.0094 µM | 0.06 nM | 1.2 nM | 21.1 | 0.14 nM | 5.66 | 0.0534 µM |
